Source: patent US5506115A, “Reagent and method for determining activity of herpes protease” (G. D. Searle & Co., priority 1994, dated 1996)
Where a SMILES comes first, the peptide text is derived from it. The star is where a group is joined. Dabcyl = CN(C)c1ccc(N=Nc2ccc(C(=O)*)cc2)cc1; EDANS = O=S(=O)(O)c1cccc2c(NCCN*)cccc12; GABA = NCCCC(=O)O

Target: T1, CMV assemblin (Human cytomegalovirus, UniProt P16753)
T1 construct: a DNA construction encoding the protease domain of the UL 80 open reading frame; His6 (N); made in house; host or cells: E. coli
Test: Hydrolysis of fluorogenic substrate by CMV assemblin (fluorescence time course, FIG. 2)
Type: biochemical
Conditions: 10 μM DE1, protease added; 340 nm excitation, 480 nm emission; within 30 minutes
Protocol: The fluorometric assay developed to incorporate the substrate compounds of the invention is a method for the determination of a herpesvirus protease and inhibitors of a herpesvirus protease, e.g. a CMV protease (also known as assemblin) encoded by UL 80, which comprises placing a known amount of the herpesvirus protease in the wells of a "Microlite 1"96 well plate (Dynatek Laboratories, Inc.), adding a known amount of the substrate at 22° C., measuring the change in fluorescence with time and determining the molar velocity of the herpesvirus protease by comparing against a standard curve which relates changes in fluorescent intensity to changes in concentration of product. Potential inhibitors of the protease action can be added to the well to observe their effect on the protease cleavage activity.
The arrow indicates the addition of protease to 10 μM DE1 [SEQ ID NO:34]. […] Fluorescence magnitude is plotted versus time.
An assay was developed for screening potential herpesvirus protease inhibitors utilizing the substrates of the invention. Recombinant HCMV protease was purified from E. coli expressing a DNA construction encoding the protease domain of the UL 80 open reading frame of human cytomegalovirus strain AD169. The construction also encoded six additional histidine residues at the amino terminus of the protease. […]

T1 sequence (P16753 1-256): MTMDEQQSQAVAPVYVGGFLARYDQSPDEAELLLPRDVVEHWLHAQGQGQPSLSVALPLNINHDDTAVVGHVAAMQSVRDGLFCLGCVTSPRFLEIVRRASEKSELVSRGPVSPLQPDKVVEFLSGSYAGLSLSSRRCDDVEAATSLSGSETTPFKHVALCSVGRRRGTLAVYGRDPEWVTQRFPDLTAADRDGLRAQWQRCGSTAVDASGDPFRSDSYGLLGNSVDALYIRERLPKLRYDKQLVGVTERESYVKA

CC(C)C[C@H](NC(=O)[C@H](CCCNC(=N)N)NC(=O)[C@H](C)NC(=O)[C@H](CO)NC(=O)[C@H](C)NC(=O)[C@H](CC(N)=O)NC(=O)[C@@H](NC(=O)[C@@H](NC(=O)CCCNC(=O)c1ccc(N=Nc2ccc(N(C)C)cc2)cc1)C(C)C)C(C)C)C(=O)NCCNc1cccc2c(S(=O)(=O)O)cccc12 [DE1, DABCYL-γ-Abu-Val-Val-Asn-Ala-Ser-Ala-Arg-Leu-EDANS] ({Dabcyl-GABA}-VVNASARL-{EDANS})
increase in fluorescence emission on cleavage of the substrate: 10 fold
